Data from patent publication US11879021B2, “Cyclic peptides and uses thereof” (UNIVERSITÉ DE MONTRÉAL, priority 2016, dated 2024).

How the values were obtained:
[1] = test system: R-FSL-1 (TLR2 agonist)-induced TNF-α and CCL-2 release in RAW macrophages; assay: R-FSL-1-induced TNF-α and CCL-2 release in RAW macrophages; format: cell-based, murine; details: 10^−7 M
Experimental: The murine RAW1 macrophage cell line was obtained from American Type Cell Collection (ATCC #TIB-71). RAW cells were seeded at 150,000 cells per well in a 48-well plate (Costar® #3548) and weaned overnight in medium (DMEM supplemented 1% penicillin/streptomycin) at 37° C. with 5% CO2. The next day, the medium was changed to DMEM-1% penicillin/streptomycin supplemented with 0.2% BSA. The cells were first pretreated with 300 μL of azapeptides DBG178 (MPE-133, reference standard), 25 (MPE-210), 26 (MPE-266), 28 (MPE-268), 32 (MPE-267), 33 (MPE-298), 38 (MPE-308), 35 (MPE-300), 39 (MPE-310) and azaLys6-GHRP-6 (as negative control) at 10^-7M for 30 min. Then, […] of the TLR2 agonist, R-FSL-1 (300 ng/ml final concentration, R-FSL-1, Invivogen® #L7022) was added for 4 h period of incubation at 37° C. with 5% CO2. At the end of the incubation period, media were collected and stored at −80° C. for TNF-α and CCL-2 assays using ELISA kits (EbioScience® #88-7391 and #88-7324). Results were analyzed by analysis of variance (ANOVA) with post hoc comparisons using Dunnett's test with a statistical software package (Graph Pad Prism® version 7.0). P<0.05 was considered statistically significant.

[2] = biological target: T1, CD36 (Rattus norvegicus, UniProt Q07969); assay: Competition binding of photoactivatable [125I]-Tyr-Bpa-Ala-Hexarelin to CD36 in rat cardiac membranes; details: competition with [125I]-Tyr-Bpa-Ala-Hexarelin, rat heart membranes; for IC50: read-out: IC50 (μM), binding affinity for CD36
T1 construct: from tissue; host or cells: Heart (cardiac membranes) of Sprague Dawley rats from Charles River
Experimental: Hearts from Sprague Dawley rats (300-325 g) from Charles River were cut into small pieces and homogenized with a Polytron® at low speed, 3×15 sec in buffer A (10 mM NaHCO3, 5 mM NaN3, 10 μM Pefabloc®, 0.1 μM Aprotinin, 1 μM Pepstatin A, 1 μM Leupeptin, pH 7.0) at a concentration of […] of tissue. The homogenate was first centrifuged at 8,700×g for 20 min in a Sorvall® centrifuge and the supernatant was collected on ice. The pellet was resuspended and re-homogenized with a Glass-Teflon® Potter by 5 strokes. This homogenate was recentrifuged at 8,700×g for 10 min and the resulting supernatant was combined with the first collected supernatant. The combined supernatant was centrifuged at 35,000×g for 20 min. The pellet fraction obtained was resuspended in Buffer B (20 mM Tris-maleate, 0.6M KCl, pH 6.8) in a volume corresponding to 20 mL/g of fresh tissue using a glass homogenizer with a Teflon pestle. The resulting suspension was centrifuged again at 35,000×g for 60 min. and the pellet fraction obtained was resuspended in Buffer C (10 mM Tris/HCl buffer pH 7.4) and thoroughly homogenized in a glass with a Teflon® pestle (20 ml/g of fresh tissue). This suspension was submitted to another centrifugation at 35,000×g for 60 min. The collected pellet was resuspended in 50 mM Tris/HCl buffer pH 7.4) containing 2 mM EGTA in a final volume corresponding to 1-2 mL/g of fresh tissue. The membrane preparation obtained was frozen at −80° C. Protein concentration was determined using the bicinchoninic acid (BCA) method, employing BSA as standard.
The reaction was started by adding 3 nmol of H2O2 for 5 min at room temperature. This step was repeated twice with a period of 5 min of incubation for each addition. The reaction was stopped by diluting the mixture with 1 mL of 0.1% TFA. The radioiodinated peptide was purified by HPLC on a reverse-phase Vydac® C18 column with a 60-min linear gradient from 20% to 50% of acetonitrile in 0.1% TFA. The eluted radiolabelled tracer was collected, aliquoted (50×10^6 cpm/fraction) and stored at −80° C.
Binding studies with MPE-298 were done with increasing concentrations from 0.01 to 5 μM of competition ligands. Nonspecific binding was defined as binding not displaced by 50 μM corresponding peptide. All peptide containing solutions were diluted in Buffer B. Buffer A and B were degassed under vacuum, and used in capped tubes in order to minimize lipid peroxidation. Before the incubation period, all tubes were put under a low flow of nitrogen. All material was kept on ice and the binding assay was performed in darkness. After an incubation period of 60 min at 22° C. (vortexing every 15 min), membranes were submitted to irradiation with UV lamps (365 nm) for 15 min at 4° C. After centrifugation at 12,000×g for 15 minutes, the pellets were resuspended in 40 μl of sample buffer (62 mM Tris-HCl, pH 6.8, 2% SDS, 10% glycerol, 15% 2-mercaptoethanol, and 0.05% bromophenol blue), and boiled for 5 min prior to being subjected to electrophoresis. Proteins (50 μg/40 μl) were separated on a 7.5% SDS-PAGE Bio-Rad® Mini-Protean electrophoresis system (150 V for 1 h). The gels resulting from SDS/PAGE were fixed, colored in Coomassie Brilliant Blue R-250, dried, exposed to a storage phosphor intensifying screen (Amersham Biosciences), and analysed using a Typhoon® PhosphorImager (GE Healthcare Life Sciences®). […] The curves were analysed by using software package (Graphpad® prism version 7.0).

[3] = test system: R-FSL-1 (TLR2 agonist)-induced NO production in RAW macrophage cell line; assay: Nitric oxide (NO) production induced by TLR2 agonist R-FSL-1 in RAW macrophage cell line; format: cell-based, murine; details: RAW macrophages; for suppression of R-FSL-1-mediated NO production: at the concentration tested (10^−6 or 10^−7 M), FIGS. 4A to 4F; for suppression of NO production compared with positive control MPE-001 at the same concentration / suppression of R-FSL-1-mediated NO production at 10^−7 M: 10^−7 M, FIG. 4F; for suppression of R-FSL-1-mediated NO production at 10^−7 M: further analyses; for R-FSL-1-mediated NO production, % of control: control = R-FSL-1 only, noticeable reduction without reaching significance (P<0.01)
Experimental: The murine RAW1 macrophage cell line was obtained from American Type Cell Collection (ATCC #TIB-71), seeded at 1.5×10^5 cells/well in Dulbecco's Modified Eagle's medium (DMEM) containing 100 U/mL of penicillin (Pen) and 100 μg/mL of streptomycin (Strep) on a 48-well plate (Costar® #3548), and incubated at 37° C. with 5% CO2. After 2 h, the cell culture medium of adhered cells was removed and replaced by DMEM-Pen/Strep medium containing 0.2% of bovine serum albumin (BSA), and supplemented with the cyclic peptides at a concentration of 10^−6 or 10^−7 M. MPE-001 (DBG178, His-D-Trp-Ala-AzaTyr-D-Phe-Lys-NH2) and [azaLys^6]-GHRP-6 (His-D-Trp-Ala-Trp-D-Phe-azaLys-NH2, negative control) at 10^−6 M were used as positive and negative controls, respectively. After 1 h pre-incubation, the cells were stimulated overnight using the TLR2 ligand fibroblast-stimulating lipopeptide (R-FSL-1) (Invivogen® #L7022) at a concentration of 300 ng/mL. Supernatants were then collected for nitrite production analysis by fluorescence using 2,3-diaminonaphthalene (DAN). Briefly, 25 μL of sample was incubated with 0.5 μg of DAN in a 100 μL final volume of phosphate buffer (50 mM, pH 7.5) at room temperature in the dark. After 15 min, the reaction was stopped with 20 μL of NaOH (2.8N) and the plate was read using a fluorescence plate reader (TECAN® Safire, λexc 365 nm and λem 430 nm).

[4] = test system: apoE−/− mice; assay: Murine atherosclerosis model (apoE−/− mice on atherogenic diet), aortic lesions; format: in vivo; details: 300 nmol/kg daily s.c. for 8 weeks
Experimental: Experiments were performed in male apoE−/− mice fed an atherogenic diet (D12108, cholate-free AIN-76A semi-purified diet, Research Diets Inc., New Brunswick, NJ) from 4 weeks of age. MPE-298 (300 nmol/kg), MPE-267 (300 nmol/kg) or vehicle (0.9% NaCl), were administered by daily by subcutaneous (s.c.) injections for 8 weeks, from 12 weeks of age, as shown schematically in FIG. 8A.

[5] = test system: R-FSL-1 (TLR2 agonist)-induced TNF-α and CCL-2 release in RAW macrophages; assay: R-FSL-1-induced TNF-α and CCL-2 release in RAW macrophages; format: cell-based, murine; details: 10^−7 M; remark: listed apart in the source

T1 sequence (Q07969 whole entry): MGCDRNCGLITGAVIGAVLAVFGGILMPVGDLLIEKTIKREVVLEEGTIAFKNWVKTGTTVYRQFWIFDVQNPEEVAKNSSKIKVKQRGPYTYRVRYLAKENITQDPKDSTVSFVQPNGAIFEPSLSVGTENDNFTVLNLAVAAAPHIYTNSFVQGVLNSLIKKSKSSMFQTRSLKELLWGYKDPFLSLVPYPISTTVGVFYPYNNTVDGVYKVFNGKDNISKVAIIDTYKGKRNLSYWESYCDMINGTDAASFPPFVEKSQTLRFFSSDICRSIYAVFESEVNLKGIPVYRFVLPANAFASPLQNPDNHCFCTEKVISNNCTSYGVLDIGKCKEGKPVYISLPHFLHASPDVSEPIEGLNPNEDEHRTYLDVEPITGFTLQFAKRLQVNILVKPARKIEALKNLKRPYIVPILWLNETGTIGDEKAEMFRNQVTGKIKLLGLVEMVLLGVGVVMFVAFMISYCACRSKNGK

| Structure (SMILES) | IC50 [2] | binding to CD36 (in words) [2] | effect on R-FSL-1-induced CCL-2 release [1] | effect on R-FSL-1-induced TNF-α release [1] | suppression of R-FSL-1-mediated NO production [3] | reduction of aortic lesions relative to 0.9% NaCl (vehicle) [4] | suppression of NO production compared with positive control MPE-001 at the same concentration [3] | suppression of R-FSL-1-mediated NO production at 10^−7 M [3] | R-FSL-1-mediated NO production, % of control [3] | inhibitory effect on R-FSL-1-induced CCL-2 release compared with reference standard DBG178 (MPE-001) [5] |
| --- | --- | --- | --- | --- | --- | --- | --- | --- | --- | --- |
| CN1CC#CCN(NC(=O)[C@@H](Cc2c[nH]c3ccccc23)NC(=O)[C@@H](N)Cc2cnc[nH]2)C(=O)N[C@@H](Cc2c[nH]c3ccccc23)C(=O)N[C@H](Cc2ccccc2)C(=O)N[C@H](C(N)=O)CCCC1 [MPE-210] | 2.06 µM |  | no significant effect | no significant effect |  |  |  |  |  |  |
| C=CCN1CC#CCN(N)C(=O)N[C@H](Cc2c[nH]c3ccccc23)C(=O)N[C@@H](C)C(=O)N[C@@H](Cc2c[nH]c3ccccc23)C(=O)N[C@H](Cc2ccccc2)C(=O)N[C@H](C(N)=O)CCCC1 [MPE-268] |  | no significant binding affinity | no significant effect | no significant effect |  |  | more important | significant suppression | about 80 % of control |  |
| C=CCN1CC#CCN(NC(C)=O)C(=O)N[C@H](Cc2c[nH]c3ccccc23)C(=O)N[C@@H](C)C(=O)N[C@@H](Cc2c[nH]c3ccccc23)C(=O)N[C@H](Cc2ccccc2)C(=O)N[C@H](C(N)=O)CCCC1 [MPE-310] | 0.89 µM |  | significant inhibitory effect | significant inhibitory effect |  |  | more important | significant suppression | about 80 % of control | significantly higher |

Continued, in another order:

| IC50 [2] | binding to CD36 (in words) [2] | Structure (SMILES) | effect on R-FSL-1-induced CCL-2 release [1] | effect on R-FSL-1-induced TNF-α release [1] | suppression of R-FSL-1-mediated NO production [3] | reduction of aortic lesions relative to 0.9% NaCl (vehicle) [4] | suppression of NO production compared with positive control MPE-001 at the same concentration [3] | suppression of R-FSL-1-mediated NO production at 10^−7 M [3] | R-FSL-1-mediated NO production, % of control [3] | inhibitory effect on R-FSL-1-induced CCL-2 release compared with reference standard DBG178 (MPE-001) [5] |
| --- | --- | --- | --- | --- | --- | --- | --- | --- | --- | --- |
| 0.68 µM |  | C=CCN1CC#CCN(NC(=O)[C@@H](Cc2c[nH]c3ccccc23)NC(=O)[C@@H](N)Cc2cnc[nH]2)C(=O)N[C@@H](Cc2c[nH]c3ccccc23)C(=O)N[C@H](Cc2ccccc2)C(=O)N[C@H](C(N)=O)CCCC1 [MPE-266] | significant inhibitory effect | significant inhibitory effect | significant suppression |  |  |  |  |  |
| 0.24 µM |  | C=CCN1CC#CCN(NC(=O)[C@H](C)N)C(=O)N[C@@H](C)C(=O)N[C@@H](Cc2c[nH]c3ccccc23)C(=O)N[C@H](Cc2ccccc2)C(=O)N[C@H](C(N)=O)CCCC1 [MPE-267] | significant inhibitory effect | significant inhibitory effect | significant suppression | 28% |  |  |  |  |
| 0.67 µM |  | C=CCN1CC#CCN(NC(=O)[C@H](C)NC(C)=O)C(=O)N[C@H](Cc2c[nH]c3ccccc23)C(=O)N[C@@H](C)C(=O)N[C@@H](Cc2c[nH]c3ccccc23)C(=O)N[C@H](Cc2ccccc2)C(=O)N[C@H](C(N)=O)CCCC1 [MPE-308] | significant inhibitory effect | significant inhibitory effect |  |  | more important | significant suppression | about 80 % of control |  |
